The record followed here is patent publication US6919345B2, “Sulfonate substituted pyrazol pyridine derivatives” (Bayer Aktiengesellschaft, priority 2001, dated 2005).

The subject of this assay is rabbit aorta rings. The experiment in a line: Vasorelaxant effect in vitro (phenylephrine-contracted rabbit aorta rings). The conditions noted are these: Oryctolagus cuniculus; concentration reducing height of phenylephrine-induced contraction of rabbit aorta rings by 50%; 0.1% DMSO. How it is done: Rabbits are stunned by a blow to the back of the neck and are exsanguinated. The aorta is removed, freed of adherent tissue, divided into rings 1.5 mm wide and put singly under tension in 5 ml organ baths containing carbogen-gassed Krebs-Henseleit solution at 37° C. with the following composition (mM): NaCl: 119; KCl: 4.8; CaCl2×2 H2O: 1; MgSO4×7 H2O; 1.4; KH2PO4: 1.2; NaHCO3: 25; glucose: 10. The force of contraction is detected with Statham UC2 cells, amplified and digitized via A/D converters (DAS-1802 HC, Keithley Instruments Munich) and recorded in parallel on chart recorders. A contraction is generated by adding phenylephrine to the bath cumulatively in increasing concentration. After several control cycles, the substance to be investigated is investigated in each further run in increasing dosage in each case, and the height of the contraction is compared with the height of the contraction reached in the last preceding run. The concentration necessary to reduce the height of the control value by 50% (IC50) is calculated from this. The standard application volume is 5 μl, and the DMSO content in the bath solution corresponds to 0.1%.
By IC50 is commonly meant the midpoint of a concentration-inhibition curve. Read a high IC50 as weaker potency in that assay. `Nc1nc(-c2nn(Cc3ccccc3F)c3ncccc23)ncc1OS(=O)(=O)CCl` [Example 1, 4-Amino-2-[1-(2-fluorobenzyl)-1H-pyrazolo[3,4-b]pyridin-3-yl]-5-pyrimidinyl chloromethanesulfonate] registered a concentration for half-maximal inhibition (IC50) of 700 nM. For `CS(=O)(=O)Oc1cnc(-c2nn(Cc3ccccc3F)c3ncccc23)nc1N` [Example 2], the IC50 amounted to 580 nM. The IC50 values of the last two molecules are within 1.5-fold of each other. As for `CCS(=O)(=O)Oc1cnc(-c2nn(Cc3ccccc3F)c3ncccc23)nc1N` [Example 3], half-maximal inhibition (IC50) was put at 300 nM. Molecule `Nc1nc(-c2nn(Cc3ccccc3F)c3ncccc23)ncc1OS(=O)(=O)C1CC1` [Example 4] had an IC50 of 710 nM. This IC50 is about 2.4-fold higher than that of the molecule before. Molecule `CC(C)S(=O)(=O)Oc1cnc(-c2nn(Cc3ccccc3F)c3ncccc23)nc1N` [Example 5] gave an IC50 of 520 nM. This IC50 and that of the molecule before are within 1.5-fold of each other. `Nc1nc(-c2nn(Cc3ccccc3F)c3ncccc23)ncc1OS(=O)(=O)CCCC(F)(F)F` [Example 7] had an IC50 of 440 nM.

`Nc1nc(-c2nn(Cc3ccccc3F)c3ncccc23)ncc1OS(=O)(=O)c1ccccc1` [Example 10]: the IC50 was 2020 nM. Against the preceding molecule, the IC50 is about 4.6-fold higher.
